Holding throughout (assay): relative viability (nuclei count vs DMSO), 5 days (fraction); higher = more cells survive
Compound in the assay “CUDC-101 + Navitoclax”: C#Cc1cccc(Nc2ncnc3cc(OC)c(OCCCCCCC(=O)NO)cc23)c1 [CUDC-101] + CC1(C)CCC(c2ccc(Cl)cc2)=C(CN2CCN(c3ccc(C(=O)NS(=O)(=O)c4ccc(N[C@H](CCN5CCOCC5)CSc5ccccc5)c(S(=O)(=O)C(F)(F)F)c4)cc3)CC2)C1 [Navitoclax] (partner 0.5 µM)
Put shortly:
(§1)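 Dosing by pin tool came one day after lung cancer cell lines were seeded in 1536-well plates, using either one drug or a fixed anchor-drug dose plus five library-drug doses (not always all listed) in √10 steps. After 5 days, nuclei were counted on 4× images. Relative viability is treated-well nuclei count divided by vehicle-well nuclei count, and values are medians of duplicate plates.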

Compound in the assay “CUDC-101 + Tozasertib”: C#Cc1cccc(Nc2ncnc3cc(OC)c(OCCCCCCC(=O)NO)cc23)c1 [CUDC-101] + Cc1cc(Nc2cc(N3CCN(C)CC3)nc(Sc3ccc(NC(=O)C4CC4)cc3)n2)n[nH]1 [Tozasertib] (partner 0.1 µM)
Put shortly: as §1

Compound in the assay “CUDC-101 + Phenformin”: C#Cc1cccc(Nc2ncnc3cc(OC)c(OCCCCCCC(=O)NO)cc23)c1 [CUDC-101] + N=C(N)NC(=N)NCCc1ccccc1 [Phenformin] (partner 250 µM)
The method, boiled down: as §1

Compound in the assay “Vandetanib + Navitoclax”: COc1cc2/c(=N/c3ccc(Br)cc3F)nc[nH]c2cc1OCC1CCN(C)CC1 [Vandetanib] + CC1(C)CCC(c2ccc(Cl)cc2)=C(CN2CCN(c3ccc(C(=O)NS(=O)(=O)c4ccc(N[C@H](CCN5CCOCC5)CSc5ccccc5)c(S(=O)(=O)C(F)(F)F)c4)cc3)CC2)C1 [Navitoclax] (partner 0.5 µM)
The method, boiled down:
as §1

Regarding UMC-11, the relative viability with CUDC-101 + Navitoclax (first compound 0.01 µM) came to 0.313; in the assay with CUDC-101 + Navitoclax (first compound 0.03162 µM) it was 0.302; with CUDC-101 + Navitoclax (first compound 0.1 µM), 0.257; with CUDC-101 + Navitoclax (first compound 0.3162 µM), 0.225; in the assay with CUDC-101 + Navitoclax (first compound 1 µM), 0.0766; with CUDC-101 + Tozasertib (first compound 0.01 µM), 0.193. Also, the relative viability came to 0.176 with CUDC-101 + Tozasertib (first compound 0.03162 µM); 0.193 with CUDC-101 + Tozasertib (first compound 0.1 µM); 0.155 in the assay with CUDC-101 + Tozasertib (first compound 0.3162 µM); 0.133 with CUDC-101 + Tozasertib (first compound 1 µM); 0.337 in the assay with CUDC-101 + Phenformin (first compound 0.01 µM); 0.285 with CUDC-101 + Phenformin (first compound 0.03162 µM). In addition, the relative viability with CUDC-101 + Phenformin (first compound 0.1 µM) was 0.262; with CUDC-101 + Phenformin (first compound 0.3162 µM), 0.167; in the assay with CUDC-101 + Phenformin (first compound 1 µM), 0.102; in the assay with Vandetanib + Navitoclax (first compound 0.02 µM), 0.312; with Vandetanib + Navitoclax (first compound 0.06325 µM), 0.311; with Vandetanib + Navitoclax (first compound 0.2 µM) it was 0.286. The relative viability amounted to 0.308 in the assay with Vandetanib + Navitoclax (first compound 0.6325 µM) and 0.309 with Vandetanib + Navitoclax (first compound 2 µM).

Values taken from the supplement of paper PMC10307832.
